Assay results published in patent US7846972B2, “Multimeric oleamide derivative having connexin-26 inhibiting potency and use thereof in cancer therapy, etc” (The New Industrial Research Organization, priority 2004, dated 2010).
“Also recorded” adds a separate entry of the source.

Experiments:
Az521 cells [1] = test: Cancer growth inhibition (antitumor effect), Az521 cells implanted subcutaneously in nude mice; format: in vivo, mouse
Procedure: Az521 cells, which were human gastric cancer cells, were implanted subcutaneously into the back of each nude mouse. Then the cancer growth inhibitory effect (antitumor effect) provided by MI-22 peritoneal administration was examined. More specifically, 1-2×10^5 Az521 cells were injected subcutaneously into the back of each 4-week-old BALB/c nude mouse (nu/nu). Three days before the subcutaneous implantation, 0.1 mL of a solution containing MI-22 (10 mg) dissolved in olive oil (10 mL) was injected intraperitoneally. After the subcutaneous implantation, MI-22 was administered intraperitoneally in the same manner twice a week. For the control mice group, no drug administration/treatment by injection was carried out.
The sizes of tumors formed after the subcutaneous implantation were observed, and then the antitumor effect of MI-22 was evaluated with the weight of the tumors being measured over time. The results are shown in the graph in FIG. 7. The vertical axis indicates the weight (mg) of tumors, and the horizontal axis indicates the number of days after the subcutaneous implantation. The average values of six tumors are shown with respect to three nude mice.

rat connexin 26 (Cx26) = target: T1, rat connexin 26 (Cx26) (Rattus norvegicus, UniProt P21994); test: Dye-transfer assay, GJIC through connexin 26 (HeLa-Cx26); format: cell-based; conditions: for connexin 26 inhibitory activity: result in words
T1 construct: expressed in transfected cells; host or cells: HeLa cell subclone HeLa-Cx26 (human uterocervical squamous carcinoma)
Procedure: (§1) Next, with respect to each oleamide derivative synthesized by the method described above, we studied whether each derivative inhibited connexin 26 (in other words, whether each one inhibited the transfer of a substance from one cell to another through a gap junction formed by the connexin 26). The experimental method was the same as that described in International Publication WO 2004/060398. Each gap junction intercellular communication (GJIC) score of each test substance was evaluated by dye-transfer assay.
(§2) In the same manner as in the method described in the above-mentioned publication, human uterocervical squamaous carcinoma cells (HeLa cells) were used for the experiment. More specifically, HeLa cell subclones (HeLa-Cx26 and HeLa-Cx43) were used, and they stably expressed rat connexin 26 (Cx26) and rat connexin 43 (Cx43), respectively. All cells (including those in the examples described later) were incubated in Dulbecco's modified eagle's medium (DMEM) with 10% fetal calf serum (FCS) added.
(§3) A day before the assay, the HeLa-Cx26 and HeLa-Cx43 cells each were suspended individually in DMEM containing 10% FCS. The respective cells were divided to be cultured as donor cells and recipient cells. The recipient cells were cultured in a culture dish with a diameter of 3 cm and were adjusted to yield subconfluent monolayers at the time of assay.
In the assay, first, both the dyes of calcein (gap junction-permeable) and DiI (gap junction-impermeable) were added to the culture of donor cells at concentrations of 10 μM and 2 μM, respectively, and incubated for one hour. Double-labeled donor cells were trypsinized and washed three times with phosphate-buffered saline. Thereafter each single donor cell was overlaid gently on unlabeled recipient cells. It took one hour for the donor cell to settle over a monolayer. […] Dye transfer from a donor cell to an adjacent recipient cell through a gap junction was observed.
In order to evaluate the inhibitory activity of each test substance with respect to the dye-coupling, one hour after the donor cells were planted, oleamide and the multimeric oleamide derivatives described above each were dissolved in ethanol, and 10 μL thereof was then added to each culture dish so that the final concentration was 20 μM. For control, ethanol diluted 1000 times was added to a culture dish.
In FIG. 2, since the donor cell indicated with a “*” mark contains both the calcein (green fluorescence) and DiI (red fluorescence), it is shown in yellow in the original drawing. Furthermore, when gap junction-permeable calcein is transferred to a recipient cell through a gap junction by the dye coupling, this cell is shown in green. With such an assay, the GJIC score of each test substance is evaluated as follows.
(§4) That is, the evaluation was made as “0” where no dye-coupling of a donor cell is found, “1” where the dye-coupling of a donor cell to an adjacent recipient cell is found, “2” and “3” in cases where calcein that has been transferred to the adjacent recipient cell is transferred to the second and third adjacent cells in a direction away from the donor cell, respectively, and so on. Also, as shown with arrows in the drawing, the extent of cell dyeing was evaluated with four levels of 0.25, 0.5, 0.75, and 1.0 as intermediate levels.
(§5) Such an assay was carried out three times repeatedly. […] Then the average value and standard deviation of the GJIC scores of the respective test substances were calculated. […]

rat connexin 43 (Cx43) = target: T2, rat connexin 43 (Cx43) (Rattus norvegicus, UniProt P08050); test: Dye-transfer assay, GJIC through connexin 43 (HeLa-Cx43); format: cell-based; conditions: for connexin 43 inhibitory activity: HeLa-Cx43, 20 μM, result in words
T2 construct: expressed in transfected cells; host or cells: HeLa cell subclone HeLa-Cx43 (human uterocervical squamous carcinoma)
T2 sequence (P08050 2-382 limits assumed): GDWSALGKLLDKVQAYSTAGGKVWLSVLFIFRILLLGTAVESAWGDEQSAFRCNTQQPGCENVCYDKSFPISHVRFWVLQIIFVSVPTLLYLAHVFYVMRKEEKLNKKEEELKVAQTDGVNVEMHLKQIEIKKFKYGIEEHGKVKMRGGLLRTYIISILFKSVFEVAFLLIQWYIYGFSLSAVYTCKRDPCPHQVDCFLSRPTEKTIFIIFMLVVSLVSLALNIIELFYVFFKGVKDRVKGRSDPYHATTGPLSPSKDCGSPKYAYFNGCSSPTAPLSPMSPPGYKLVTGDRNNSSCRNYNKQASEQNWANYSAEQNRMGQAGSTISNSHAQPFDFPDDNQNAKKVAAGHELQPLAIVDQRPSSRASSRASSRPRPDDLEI
Procedure: as §1, §2, §3
In the assay, first, both the dyes of calcein (gap junction-permeable) and DiI (gap junction-impermeable) were added to the culture of donor cells at concentrations of 10 μM and 2 μM, respectively, and incubated for one hour. Double-labeled donor cells were trypsinized and washed three times with phosphate-buffered saline. Thereafter each single donor cell was overlaid gently on unlabeled recipient cells. It took one hour for the donor cell to settle over a monolayer. […]
In FIG. 2, since the donor cell indicated with a “*” mark contains both the calcein (green fluorescence) and DiI (red fluorescence), it is shown in yellow in the original drawing. […] With such an assay, the GJIC score of each test substance is evaluated as follows.
as §4, §5

[2] = test system: BL6 cells (substrains of B16 mouse melanoma cells); format: in vivo
Procedure: The experiment was carried out by the same method as that described in International Publication WO 2004/060398. That is, after subcutaneously inoculating 1×10^5 BL6 cells (substrains of B16 mouse melanoma cells) to a planter of each 4-week-old C57BL/6 mouse, the mice were classified into two groups.
(1) MI-22 administration group: a group of mice subjected to intraperitoneal injection of MI-22 (10 mg) dissolved in olive oil (10 mL) so as to be 0.01 mL per 1 g of the weight of a mouse, once a day (about 0.2 mL per administration) on consecutive days
(2) Nontreatment (Nt) group: a group of mice subjected to no drug administration/treatment by injection.
This treatment was carried out on consecutive days from the next day of the BL6 cells inoculation. When tumors that had formed at the inoculation sites grew to have diameters of about 7 mm, the legs with the tumors were removed by amputation at the knee joints. Then the above-mentioned treatment was carried out for another two days after the amputation. Thereafter the mice were fed without being treated. Four weeks after the amputations at the knee joints, the mice were euthanized, and metastasized tubercles that had formed at the pleura surface in the left and right lungs (the number of foci that metastasized to the lungs) were counted visually. An evaluation was made using 15 mice per each group.

[3] = Solubility in organic solvent (handling property); format: physicochemical
Az521 cells [4] = test: Cytotoxicity assay (cell growth inhibitory potential), trypan blue cell count; format: cell-based, human; conditions: Az521 cells in culture, 6-48 hours, FIG. 6
Procedure: In order to examine the cytotoxicity (cell growth inhibitory potential) of MI-22, approximately 1×10^5 Az521 cells, which were human gastric cancer cells, were plated in each petri dish with a diameter of 3.5 cm and were cultured in the presence or absence (control) of MI-22. Then 6, 12, 24, 36, and 48 hours after the start of culture, the cells in each petri dish were taken off with trypsin-EDTA and then centrifuged. Thereafter the cells were dissolved in 10% FBS-containing DMEM, and then 10 μL of trypan blue was added to 10 μL thereof. After that, the number of cells was counted by the use of a counting chamber. The results are shown in the graphs in FIG. 6. The vertical axis indicates the number of cells, and the horizontal axis indicates the time. The graphs show averages of the results of experiments performed three times.

[5] = HeLa-Cx26, 20 μM, dye-transfer assay

## CCCCCCCC/C=C\CCCCCCC(CCCC(CCCCCC/C=C\CCCCCCCC)C(=O)N(CC)CC)C(=O)N(CC)CC (stereo not drawn) [MI-22, N^1,N^1,N^7,N^7-Tetraethyl-2,6-di[(Z)-7-hexadecenyl]-heptanediamide]
Az521 cells [1]; BALB/c nude mice, intraperitoneal twice a week, FIG. 7
  growth of tumors (weight of tumors) vs control mice group: suppressed conspicuously
Az521 cells [1]; nude mice, intraperitoneal, FIG. 8
  increase in the volume of tumors vs nontreatment mice group (NT): suppressed conspicuously
Rat connexin 26 (Cx26); [5]
  connexin 26 inhibitory activity: strong connexin 26 inhibitory activity; also recorded: strong connexin 26 inhibitory activities
Rat connexin 26 (Cx26); HeLa-Cx26, final concentration 20 μM, dye-transfer assay, FIG. 3
  GJIC score obtained through connexin 26: ≤ 2
Rat connexin 43 (Cx43)
  connexin 43 inhibitory activity: no connexin 43 inhibitory activity; also recorded: hardly inhibited the function of connexin 43; also recorded: no effect of inhibiting connexin 43 was found
Rat connexin 43 (Cx43); HeLa-Cx43, final concentration 20 μM, FIG. 3
  GJIC score obtained through connexin 43: almost the same as that of a control
[2]; C57BL/6 mice, intraperitoneal once a day
  spontaneous metastasis of cancer vs nontreatment (Nt) group, result in words: inhibited/suppressed spontaneous metastasis of cancer conspicuously
[2]; C57BL/6 mice, intraperitoneal once a day, 4 weeks after amputation, FIG. 4
  decrease of the number of metastatic foci in the lungs vs nontreatment (Nt) group: 80%
[2]; of 15 mice per group, FIG. 5 (Nt group: eight)
  number of mice with lungs with slight spontaneous metastasis: six
[2]; of 15 mice per group, FIG. 5 (Nt group: five)
  number of mice with lungs with considerable spontaneous metastasis: two
[2]; of 15 mice per group, FIG. 5 (Nt group: two)
  number of mice with lungs with no spontaneous metastasis of cancer: seven
[3]
  solubility in an organic solvent: dissolves well in an organic solvent
Az521 cells [4]
  cytotoxicity (cell growth inhibitory potential), number of cells vs control: no significant difference between MI-22 and control; also recorded: not found

## CCCCCCCC/C=C\CCCCCCCC(=O)NCCCNC(=O)CCCCCCC/C=C\CCCCCCCC [MI-45, N^1-[(Z)-3-Octadec-9-enoylaminopropyl]-(Z)-9octadecenamide]
Rat connexin 26 (Cx26); [5]
  connexin 26 inhibitory activity: strong connexin 26 inhibitory activity; also recorded: strong connexin 26 inhibitory activities
Rat connexin 43 (Cx43)
  connexin 43 inhibitory activity: no connexin 43 inhibitory activity; also recorded: hardly inhibited the function of connexin 43

## CCCCCCCC/C=C\CCCCCCC(CCCCCC(CCCCCC/C=C\CCCCCCCC)C(=O)N(CC)CC)C(=O)N(CC)CC (stereo not drawn) [MI-39, N^1,N^1,N^9,N^9-Tetraethyl-2,8-di[(Z)-7-hexadecenyl]nonanediamide]
Rat connexin 26 (Cx26); [5]
  connexin 26 inhibitory activity: strong connexin 26 inhibitory activity; also recorded: strong connexin 26 inhibitory activities
Rat connexin 43 (Cx43)
  connexin 43 inhibitory activity: no connexin 43 inhibitory activity; also recorded: hardly inhibited the function of connexin 43

## CCCCCCCC[C@H]1O[C@H]1CCCCCCCC(=O)NCCCCN(CCCNC(=O)CCCCCCC[C@@H]1O[C@@H]1CCCCCCCC)C(=O)CCCCCCC[C@@H]1O[C@@H]1CCCCCCCC (relative stereo) [MI-51, N^1-{3-[8-{(2S*,3R*)-3-Octyl-oxiranyl}-octanoyl]-N-[4-{8[(2S*,3R*)-3-octyl-oxiranyl]-octanoylamino}-butyl]-aminopropyl}-{8-(2S*,3R*)-3-octyl-oxiranyl}octanamide]
Rat connexin 26 (Cx26); HeLa-Cx26, 20 μM, visual observation
  connexin 26 inhibitory activity as compared to the control by visual observation: found to have a connexin 26 inhibitory activity
